Results from patent US8871767B2, “2-arylimidazo[1,2-B]pyridazine, 2-phenylimidazo[1,2-A]pyridine, and 2-phenylimidazo[1,2-A]pyrazine derivatives” (Hengrui (USA) Ltd., priority 2010, dated 2014).
Like-named read-outs stand apart in the source and are kept apart here.

How the values were obtained:
[1] = system: Hedgehog pathway activation (GLi-luciferase reporter) in Shh Light II reporter cells; assay: Hedgehog pathway activation on Shh Light II reporter cells measured by luciferase activity; type: cell-based; conditions: Mus musculus, Shh Light II
Summary of the method: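 Shh Light II reporter cells carrying a hedgehog-responsive GLi-luciferase reporter were stimulated either with 500 nM SAG, a direct Smoothened agonist, or with conditioned media containing human Sonic Hedgehog (hShh). Test compounds were evaluated for blocking this pathway activation, quantified by luciferase activity. Cell viability was monitored in parallel with the Celltiter-Blue® assay.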

[2] = system: Hedgehog pathway activation on 10T1/2/Smo#3 cells (C3H10T1/2 cells transfected with human Smoothened receptor); assay: Hedgehog pathway activation on 10T1/2/Smo#3 cells measured by ALP activity; type: cell-based; conditions: Mus musculus, C3H 10T1/2, 10T1/2/Smo#3 cells
Summary of the method: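 Inhibition of alkaline phosphatase induction, read fluorometrically from 4-methylumbelliferyl phosphate conversion, gave IC50 values; CellTiter-Blue tracked viability in parallel. Cells were the human Smo-transfected 10T1/2/Smo#3 pool, stimulated by 10-20% hShh conditioned medium or the Smo agonist SAG (500 nM).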

[3] = hShh activation, read-out: Shh (IC50, inhibition of Hedgehog pathway activation)
[4] = measured by ALP activity, read-out: ALP (IC50, inhibition of Hedgehog pathway activation)
[5] = SAG activation (500 nM SAG), read-out: Shh Light II luciferase activity (SAG activation)
[6] = hShh activation, read-out: Shh Light II luciferase activity (hShh activation)
[7] = hShh activation, ALP activity, read-out: 10T1/2/Smo#3 ALP activity (hShh Activation)

Structure (SMILES) | IC50 [1, 3] [nM] | IC50 [2, 4] [nM] | IC50 [1, 5] [nM] | IC50 [1, 6] [nM] | IC50 [2, 7] [nM]
CC(C)Oc1ccc(F)c(-c2ccc3nc(-c4ccc(C(F)(F)F)c(NC(=O)C(C)(C)C)c4)cn3n2)c1 [Example 252, N-(5-(6-(2-fluoro-5-isopropoxyphenyl)imidazo[1,2-b]pyridazin-2-yl)-2-(trifluoromethyl)phenyl)pivalamide] | 722 | 392 |  |  | 
Cc1ccc(-c2cn3nc(-c4cccnc4C(F)(F)F)ccc3n2)cc1NC(=O)C(C)(C)C(F)(F)F [Example 638, 3,3,3-trifluoro-2,2-dimethyl-N-(2-methyl-5-(6-(2-(trifluoromethyl)pyridin-3-yl)imidazo[1,2-b]pyridazin-2-yl)phenyl)propanamide] | 20 | 20 |  |  | 
Cc1ccc(-c2cn3nc(-c4c(F)cccc4C(F)(F)F)ccc3n2)cc1NC(=O)C(C)(C)C [Example 397, N-(5-(6-(2-fluoro-6-(trifluoromethyl)phenyl)imidazo[1,2-b]pyridazin-2-yl)-2-methylphenyl)pivalamide] | 73 | 315 | < 300 | < 300 | < 300
Cc1ccc(-c2cn3nc(-c4cccc(N(C)C)c4)ccc3n2)cc1NC(=O)C(C)(C)C [Example 290, N-(5-(6-(3-(dimethylamino)phenyl)imidazo[1,2-b]pyridazin-2-yl)-2-methylphenyl)pivalamide] | 321 | 296 |  |  | 
Cc1ccc(-c2cn3nc(N4CCC(C#N)CC4)ccc3n2)cc1NC(=O)C(C)(C)C [compound 544] | 224 | 462 |  |  | 
CCOC(=O)Nc1cc(-c2cn3nc(-c4cccnc4C(F)(F)F)ccc3n2)ccc1F [Example 682, ethyl 2-fluoro-5-(6-(2-(trifluoromethyl)pyridin-3-yl)imidazo[1,2-b]pyridazin-2-yl)phenylcarbamate] | 571 | 1740 |  |  | 
Cc1ccc(-c2cn3nc(-c4cc(F)ccc4F)ccc3n2)cc1NC(=O)C(C)(C)C [Example 261, N-(5-(6-(2,5-difluorophenyl)imidazo[1,2-b]pyridazin-2-yl)-2-methylphenyl)pivalamide] | 142 | 91 |  |  | 
CC(C)(C)C(=O)Nc1cc(-c2cn3nc(OC4CCC4)ccc3n2)ccc1C(F)(F)F [Example 182, N-(5-(6-cyclobutoxyimidazo[1,2-b]pyridazin-2-yl)-2-(trifluoromethyl)phenyl)pivalamide] | 1740 | 1860 |  |  | 
CCOc1ccc2nc(-c3ccc(C(F)(F)F)c(-c4ccccn4)c3)cn2n1 [Example 218, 6-ethoxy-2-(3-(pyridin-2-yl)-4-(trifluoromethyl)phenyl)imidazo[1,2-b]pyridazine] | 1720 | 2120 | 3000 to 30000 | 300 to 3000 | 300 to 3000
Cc1c(-c2ccccc2)nc2ccc(N3CCN(C(=O)c4ccccc4)CC3)nn12 [Example 154, (4-(3-methyl-2-phenylimidazo[1,2-b]pyridazin-6-yl)piperazin-1-yl)(phenyl)methanone] | 3400 | 2890 |  |  | 
CCN[C@@H]1CCN(c2ccc3nc(-c4ccc(C(F)(F)F)c(NC(=O)C(C)(C)C)c4)cn3n2)C1 [Example 635, (R)—N-(5-(6-(3-(ethylamino)pyrrolidin-1-yl)imidazo[1,2-b]pyridazin-2-yl)-2-(trifluoromethyl)phenyl)pivalamide] | 110 | 159 |  |  | 
CCOC(=O)COc1ccc(-c2ccc3nc(-c4ccc(C)c(NC(=O)C(C)(C)C)c4)cn3n2)c(C(F)(F)F)c1 [Example 411, ethyl 2-(4-(2-(4-methyl-3-pivalamidophenyl)imidazo[1,2-b]pyridazin-6-yl)-3-(trifluoromethyl)phenoxy)acetate] | 251 | 679 |  |  | 
CC(C)OCCOc1ccc2nc(-c3ccc(C(F)(F)F)c(NC(=O)C(C)(C)C)c3)cn2n1 [Example 374, N-(5-(6-(2-isopropoxyethoxy)imidazo[1,2-b]pyridazin-2-yl)-2-(trifluoromethyl)phenyl)pivalamide] | 634 | 1280 |  |  | 
Cc1ccc(-c2cn3nc(C4CC4)ccc3n2)cc1NC(=O)C(C)(C)C [Example 127, N-(5-(6-cyclopropylimidazo[1,2-b]pyridazin-2-yl)-2-methylphenyl)pivalamide] | 4970 | 110 | 300 to 3000 | 300 to 3000 | < 300
Cc1c(NC(=O)C(C)(C)C)cccc1-c1cn2nc(-c3ccccc3F)ccc2n1 [Example 219, N-(3-(6-(2-fluorophenyl)imidazo[1,2-b]pyridazin-2-yl)-2-methylphenyl)pivalamide] | 1260 | 952 | 3000 to 30000 | 300 to 3000 | 300 to 3000
CC(C)(C)C(=O)Nc1cc(-c2cn3nc(-c4ccccc4Cl)ccc3n2)ccc1C(F)(F)F [Example 208, N-(5-(6-(2-chlorophenyl)imidazo[1,2-b]pyridazin-2-yl)-2-(trifluoromethyl)phenyl)pivalamide] | 95 | 140 |  |  | 
COc1ccc2nc(-c3cc(NC(=O)CC(C)(C)C)ccc3Cl)cn2n1 [Example 117, N-(4-chloro-3-(6-methoxyimidazo[1,2-b]pyridazin-2-yl)phenyl)-3,3-dimethylbutanamide] | 2800 | 6740 | 3000 to 30000 | 3000 to 30000 | 3000 to 30000
CC(C)(C)C(=O)Nc1cc(-c2cn3nc(-c4cncc5ccccc45)ccc3n2)ccc1C(F)(F)F [Example 385, N-(5-(6-(isoquinolin-4-yl)imidazo[1,2-b]pyridazin-2-yl)-2-(trifluoromethyl)phenyl)pivalamide] | 778 | 1380 | 300 to 3000 | 300 to 3000 | 300 to 3000
Cc1ccc(-c2cn3nc(-c4ccccc4Cl)ccc3n2)cc1NC(=O)C(C)(C)C [Example 258, N-(5-(6-(2-chlorophenyl)imidazo[1,2-b]pyridazin-2-yl)-2-methylphenyl)pivalamide] | 129 | 105 |  |  | 
CC(C)(C)C(=O)Nc1cc(-c2cn3nc(-c4ccc(F)cc4)ccc3n2)ccc1C(F)(F)F [Example 143, N-(5-(6-(4-fluorophenyl)imidazo[1,2-b]pyridazin-2-yl)-2-(trifluoromethyl)phenyl)pivalamide] | 466 | 2690 |  |  | 
CC(C)(C)C(=O)Nc1cc(-c2cn3nc(C#N)ccc3n2)ccc1C(F)(F)F [Example 173, N-(5-(6-cyanoimidazo[1,2-b]pyridazin-2-yl)-2-(trifluoromethyl)phenyl)pivalamide] | 4400 | 4430 | 3000 to 30000 | 3000 to 30000 | 3000 to 30000
CNc1ccc2nc(-c3ccc(C(F)(F)F)c(NC(=O)C(C)(C)C)c3)cn2n1 [Example 137, N-(5-(6-(methylamino)imidazo[1,2-b]pyridazin-2-yl)-2-(trifluoromethyl)phenyl)pivalamide] | 623 | 995 | 300 to 3000 | 300 to 3000 | 300 to 3000
Cc1cc(Cl)c(-c2cn3nc(-c4cccnc4C(F)(F)F)ccc3n2)cc1NC(=O)C(C)(C)C [Example 639, N-(4-chloro-2-methyl-5-(6-(2-(trifluoromethyl)pyridin-3-yl)imidazo[1,2-b]pyridazin-2-yl)phenyl)pivalamide] | 30 | 55 | < 300 | < 300 | < 300
O=C(Nc1cc(-c2cn3nc(-c4cccnc4C(F)(F)F)ccc3n2)ccc1F)C1CCCC1 [Example 678, N-(2-fluoro-5-(6-(2-(trifluoromethyl)pyridin-3-yl)imidazo[1,2-b]pyridazin-2-yl)phenyl)cyclopentanecarboxamide] | 139 | 342 |  |  | 
Cc1ccnc(-c2ccc3nc(-c4ccc(C(F)(F)F)c(NC(=O)C(C)(C)C)c4)cn3n2)c1 [Example 151, N-(5-(6-(4-methylpyridin-2-yl)imidazo[1,2-b]pyridazin-2-yl)-2-(trifluoromethyl)phenyl)pivalamide] | 899 | 1810 |  |  | 
Cc1ccc(-c2cn3nc(-c4ccc(Cl)cn4)ccc3n2)cc1NC(=O)C(C)(C)C [Example 366, N-(5-(6-(5-chloropyridin-2-yl)imidazo[1,2-b]pyridazin-2-yl)-2-methylphenyl)pivalamide] | 227 | 1100 |  |  | 
CC(C)(C)C(=O)Nc1cc(-c2cn3nc(-c4ccc(C(F)(F)F)cc4)ccc3n2)ccc1C(F)(F)F [Example 210, N-(2-(trifluoromethyl)-5-(6-(4-(trifluoromethyl)phenyl)imidazo[1,2-b]pyridazin-2-yl)phenyl)pivalamide] | 223 | 375 |  |  | 
CC(C)(C)C(=O)Nc1cc(-c2cn3nc(N4CC[C@H](O)C4)ccc3n2)ccc1C(F)(F)F [Example 340, (S)-N-(5-(6-(3-hydroxypyrrolidin-1-yl)imidazo[1,2-b]pyridazin-2-yl)-2-(trifluoromethyl)phenyl)pivalamide] | 115 | 114 |  |  | 
Cc1c(-c2ccccc2)nc2ccc(N3CCN(Cc4ccc(F)cc4F)CC3)nn12 [Example 164, 6-(4-(2,4-difluorobenzyl)piperazin-1-yl)-3-methyl-2-phenylimidazo[1,2-b]pyridazine] | 463 | 550 |  |  | 
